Target: T1, FtsY (FtsYNG) (Escherichia coli, UniProt P10121)
T1 construct: NG domain, 196–497 aa
Test: SPR (positive control, […] MgCl2 in running buffer); […]-TROSY-HSQC titration
Assay type: binding

T1 sequence (P10121 196-497): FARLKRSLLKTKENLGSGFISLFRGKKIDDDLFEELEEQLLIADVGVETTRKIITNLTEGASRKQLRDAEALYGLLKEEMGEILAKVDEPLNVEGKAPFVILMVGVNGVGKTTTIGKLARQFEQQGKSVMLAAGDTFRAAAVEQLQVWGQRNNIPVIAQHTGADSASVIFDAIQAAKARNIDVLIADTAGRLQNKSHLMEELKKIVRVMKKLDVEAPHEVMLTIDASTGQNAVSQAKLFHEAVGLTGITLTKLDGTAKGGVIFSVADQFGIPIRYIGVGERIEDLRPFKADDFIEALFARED

Nc1nc2c(ncn2[C@@H]2O[C@H](COP(=O)(O)OP(=O)(O)NP(=O)(O)O)[C@@H](O)[C@H]2O)c(=O)[nH]1 [GMPPNP]
Kd: 280 ± 80 µM
